{"source": "patent US20180186769A1", "about": "“6-AMINO-5-FLUORO-5-(FLUOROMETHYL)-2,3,4,5-TETRAHYDROPYRIDIN-2-YL-PHENYL-5-(METHOXY-D3)-PYRAZINE-2-CARBOXAMIDES AND FLUORINATED DERIVATIVES THEREOF AS BACE1 INHIBITORS” (H. Lundbeck A/S, priority 2016, published 2018)", "key": {"P-gp (MDR1)": {"tested_on": "P-gp (MDR1)", "assay": "MDCK-MDR1 assay (permeability, efflux ratio)", "assay_type": "in vitro ADME", "conditions": "dog, Papp BA/Papp AB", "experimental": "The permeability of the test compounds was assessed in MDCK-MDR1 cells that were cultured to confluency (4-6 days) in a 96 transwell plate. Test compounds were diluted with the transport buffer (HBSS+1% BSA) to a concentration of 0.5 μM and applied to the apical or basolateral side of the cell monolayer. Permeation of the test compounds from A to B direction or B to A direction was determined in triplicate over a 60-minute incubation time at 37° C. and 5% CO2 with a relative humidity of 95%. Test compounds were quantified by LC-MS/MS analysis based on the peaks area ratios of analyte/IS in both the receiver and donor wells of the transwell plate.\nThe apparent permeability coefficient Papp (cm/s) was calculated using the equation: […]\nWhere dCr/dt is the cumulative concentration of compound in the receiver chamber as a function of time (μM/s); Vr is the solution volume in the receiver chamber (0.05 mL on the apical side; 0.25 mL on the basolateral side); A is the surface area for the transport, i.e. 0.0804 cm^2 for the area of the monolayer; CO is the initial concentration in the donor chamber (μM).\nCompounds are classified Pgp substrates when efflux ratio (Papp BA/Papp AB) is ≥2."}, "[1]": {"assay": "Clearance in microsomes, human", "assay_type": "in vitro ADME", "conditions": "1 microM, read-out: CLint, Human (L/h/kg) ± SD (converted)", "excerpt": "(§1) Deuterated compounds were compared to their non-deuterated parent counterparts to determine the impact of deuteration on clearance results"}, "[2]": {"assay": "Clearance in microsomes, dog", "assay_type": "in vitro ADME", "conditions": "1 microM, read-out: CLint, Dog (L/h/kg) ± SD (converted)", "excerpt": "as §1"}, "[3]": {"assay": "Clearance in hepatocytes, dog", "assay_type": "in vitro ADME", "conditions": "read-out: CLint, Dog (L/h/kg) ± SD (converted)", "excerpt": "as §1"}, "Aβ40": {"tested_on": "Aβ40", "assay": "Aβ levels in rat brain and plasma following BACE1 inhibition (Aβ40 ELISA)", "assay_type": "in vivo, Sprague Dawley rats", "conditions": "p.o.", "experimental": "Assessment of […] in rat brain and plasma following BACE1 inhibition.\nYoung adult Male Sprague Dawley rats of approximately 250 g weight were purchased from Charles River and received vehicle (2.5% HP betaCD+1M MeSO4, pH 2.5) or 0-40 mg/kg of test compounds (dissolved in vehicle) by oral gavage (p.o). The compounds are dosed at a volume of 5 ml/kg. Cohorts of 5-10 animals were established for each treatment condition.\nStudies were set up as acute dose response treatment studies were samples were taken at T=180 minutes after initial dosing, or as 12 h or 24 h timecourse treatment studies. At the end of the test period, the animals were stunned and decapitated with a guillotine. Trunk-blood was sampled in EDTA coated tubes after decapitation of the animal. The blood was centrifuged at 2200G at 4° C. for 15 minutes and the plasma was collected and frozen at −80° C. The blood was aliquoted for Aβ ELISA and DMPK analysis. Immediately following sacrifice, the brain was extracted and split into 2 halves. The left half was dissected; with the front forebrain taken for Aβ ELISA and the remainder used for DMPK analysis. These samples were also snap frozen on dry ice and stored at −80° C. until use for analysis. The right hemibrains were snap frozen on dry ice and stored at −80° C. for independent confirmatory Aβ ELISA evalution.\nThe cortex samples were thawed slightly on wet ice before they were homogenized with a small volume dispersing instrument (T10 basic ULTRA-TURRAX®) which was set at speed 5 for approximately 5-7 sec. The tissue was processed in a 10 times volume of the weight, for example 100 mg of tissue was homogenized in […] of Homogenization buffer. Homogenization buffer: 50 ml Milli Q water+[…]+0.2% Diethylamin (DEA)+1 tablet of Complete Protease inhibitor cocktail+[…] 4-(2-aminoethyl) benzenesulfonyl fluoride hydrochloride irreversible serine protease inhibitor (AEBSF).\nAfter homogenization 450 μL aliquots of the samples are collected into a 1.5 ml Eppendorf tube and placed on wet ice, 0.5% NP-40 (50 ul) was added to all samples and then they were incubated on ice for 30 min. After which all samples were sonicated using an Ultrasonic homogenizer with 20 kHz homogeneous sound (SONOPLUS HD2070, Bandelin Electronic) 10 pulse set at 12-13% power to extract all the Aβ species. The samples were then centrifuged (Ole Dich 157 MPRF Micro centrifuge) at 20000G for 20 minutes at 4° C. After centrifugation […] of the supernatant was pipetted into 600 μL microtubes tubes and neutralized with 15 µL of 1M Tris-HCL buffer.\nWAKO 294-62501 Human/Rat Abeta amyloid-40 kit was used for all ELISA analyses. 30 μL plasma samples or 30 μL of the cortex supernatants generated as described above were placed in 600 μL microtubes tubes on wet ice. To this 30 μL of 8M Urea (AppliChem A1049, 9025) are added to generate a 2-fold dilution. Both plasma and cortex supernatants are incubated on ice for 30 min. Standard rows were prepared from the standard peptide stock provided in the kit and standard diluent containing 1.6M Urea (200 μL 8M Urea+800 μL of standard diluent) and 0.8M Urea (400 μL 8M Urea+[…] Standard diluent). A serial 2-fold dilution of Aβ40 from 100 pmol/ml to 0 pmol/L was prepared for the assay.\nAfter incubation with urea, all samples were further diluted by addition of 5 times standard diluent from the Kit. This was done by adding 240 μL Standard Diluent to 60 μL sample/urea mixture, which was then mixed well. 100 μL of each diluted sample was pipetted into designated wells of the ELISA plate in duplicates. The plate was then covered and incubated overnight at 4° C. The following day, the ELISA kit was brought to room temperature before use. The incubated plate was washed 5 times with the 20× washing solution diluted in Milli Q water. 100 μL HRP-conjugate was applied to each well, and the plate was covered and incubates at 4° C. for 1 hr. The wash was repeated again for 5 times. […]"}}, "data": [{"smiles": "[2H]C([2H])([2H])Oc1cnc(C(=O)Nc2ccc(F)c([C@]3(C)CC[C@@](F)(CF)C(N)=N3)c2)cn1", "note": "[Example 1, N-(3-((2S,5S)-6-amino-5-fluoro-5-(fluoromethyl)-2-methyl-2,3,4,5-tetrahydropyridin-2-yl)-4-fluorophenyl)-5-(methoxy-d3)pyrazine-2-carboxamide]", "values": [{"measurement": "efflux ratio at 60 min, 0.5 μM", "setting": "P-gp (MDR1)", "result": 1.39}, {"measurement": "CLint scaled at 1 µM", "setting": "[1]", "result": 0.2, "unit": "L/h/kg"}, {"measurement": "CLint scaled at 1 µM", "setting": "[2]", "result": 5, "unit": "L/h/kg"}, {"measurement": "CLint scaled at 0.1 µM", "setting": "[3]; 0.1 microM", "result": 34, "unit": "L/h/kg"}, {"measurement": "CLint scaled at 0.3 µM", "setting": "[3]; 0.3 microM", "result": 25, "unit": "L/h/kg"}, {"measurement": "CLint scaled at 1 µM", "setting": "[3]; 1 microM", "result": 11, "unit": "L/h/kg"}, {"measurement": "Aβ40 reduction (%) brain", "setting": "Aβ40; 10 mg/kg, 0.5 h", "result": "−0.3", "unit": "%"}, {"measurement": "Aβ40 reduction (%) plasma", "setting": "Aβ40; 10 mg/kg, 0.5 h", "result": "−0.4", "unit": "%"}, {"measurement": "Aβ40 reduction (%) brain", "setting": "Aβ40; 10 mg/kg, 1 h", "result": 17.2, "unit": "%"}, {"measurement": "Aβ40 reduction (%) plasma", "setting": "Aβ40; 10 mg/kg, 1 h", "result": 29.5, "unit": "%"}, {"measurement": "Aβ40 reduction (%) brain", "setting": "Aβ40; 10 mg/kg, 3 h", "result": 38.3, "unit": "%"}, {"measurement": "Aβ40 reduction (%) plasma", "setting": "Aβ40; 10 mg/kg, 3 h", "result": 21.7, "unit": "%"}, {"measurement": "Aβ40 reduction (%) brain", "setting": "Aβ40; 10 mg/kg, 6 h", "result": 39.4, "unit": "%"}, {"measurement": "Aβ40 reduction (%) plasma", "setting": "Aβ40; 10 mg/kg, 6 h", "result": 15.5, "unit": "%"}, {"measurement": "Aβ40 reduction (%) brain", "setting": "Aβ40; 10 mg/kg, 12 h", "result": 13.7, "unit": "%"}, {"measurement": "Aβ40 reduction (%) plasma", "setting": "Aβ40; 10 mg/kg, 12 h", "result": 20.7, "unit": "%"}, {"measurement": "Aβ40 reduction (%) brain", "setting": "Aβ40; 20 mg/kg, 0.5 h", "result": 14.7, "unit": "%"}, {"measurement": "Aβ40 reduction (%) plasma", "setting": "Aβ40; 20 mg/kg, 0.5 h", "result": 36.5, "unit": "%"}, {"measurement": "Aβ40 reduction (%) brain", "setting": "Aβ40; 20 mg/kg, 1 h", "result": 29.7, "unit": "%"}, {"measurement": "Aβ40 reduction (%) plasma", "setting": "Aβ40; 20 mg/kg, 1 h", "result": 41.4, "unit": "%"}, {"measurement": "Aβ40 reduction (%) brain", "setting": "Aβ40; 20 mg/kg, 3 h", "result": 38.5, "unit": "%"}, {"measurement": "Aβ40 reduction (%) plasma", "setting": "Aβ40; 20 mg/kg, 3 h", "result": 34.5, "unit": "%"}, {"measurement": "Aβ40 reduction (%) brain", "setting": "Aβ40; 20 mg/kg, 6 h", "result": 42.6, "unit": "%"}, {"measurement": "Aβ40 reduction (%) plasma", "setting": "Aβ40; 20 mg/kg, 6 h", "result": 36.9, "unit": "%"}, {"measurement": "Aβ40 reduction (%) brain", "setting": "Aβ40; 20 mg/kg, 12 h", "result": 34.5, "unit": "%"}, {"measurement": "Aβ40 reduction (%) plasma", "setting": "Aβ40; 20 mg/kg, 12 h", "result": 41.3, "unit": "%"}, {"measurement": "Aβ40 reduction (%) brain", "setting": "Aβ40; 40 mg/kg, 0.5 h", "result": 39.8, "unit": "%"}, {"measurement": "Aβ40 reduction (%) plasma", "setting": "Aβ40; 40 mg/kg, 0.5 h", "result": 43.0, "unit": "%"}, {"measurement": "Aβ40 reduction (%) brain", "setting": "Aβ40; 40 mg/kg, 1 h", "result": 43.9, "unit": "%"}, {"measurement": "Aβ40 reduction (%) plasma", "setting": "Aβ40; 40 mg/kg, 1 h", "result": 47.8, "unit": "%"}, {"measurement": "Aβ40 reduction (%) brain", "setting": "Aβ40; 40 mg/kg, 3 h", "result": 50.6, "unit": "%"}, {"measurement": "Aβ40 reduction (%) plasma", "setting": "Aβ40; 40 mg/kg, 3 h", "result": 47.1, "unit": "%"}, {"measurement": "Aβ40 reduction (%) brain", "setting": "Aβ40; 40 mg/kg, 6 h", "result": 59.5, "unit": "%"}, {"measurement": "Aβ40 reduction (%) plasma", "setting": "Aβ40; 40 mg/kg, 6 h", "result": 49.9, "unit": "%"}, {"measurement": "Aβ40 reduction (%) brain", "setting": "Aβ40; 40 mg/kg, 12 h", "result": 57.7, "unit": "%"}, {"measurement": "Aβ40 reduction (%) plasma", "setting": "Aβ40; 40 mg/kg, 12 h", "result": 41.5, "unit": "%"}]}]}
